Source: paper PMC9320886, “Daily Intraperitoneal Administration of Rosiglitazone Does Not Improve Lung Function or Alveolarization in Preterm Rabbits Exposed to Hyperoxia” (Pharmaceutics, 2022)
Like-named read-outs stand apart in the source and are kept apart here.

How the values were obtained:
[1] = tested on: preterm rabbits exposed to hyperoxia; assay: pulmonary efficacy, daily intraperitoneal 1 mg/kg, preterm rabbits exposed to hyperoxia; format: in vivo, rabbit; conditions: daily i.p. 1 mg/kg
Description: A total of 31 preterm rabbits with a GA of 28 days delivered from 4 does were included in the efficacy study. After delivery, newborn pups were put in hyperoxia (95% oxygen) for 1 h. Surviving pups were exposed to hyperoxia (95% O2) for 7 days and randomized to receiving daily (from postnatal day (PND) 0 to PND 6) intraperitoneal injections of RGZ at 1 mg/kg (n = 15) or the vehicle (n = 16).
Pups were placed on a sterilized soft bedding and remained in the incubator except for the feeding and treatments. Pups were fed 4 h after delivery on PND 0 with a milk replacer (Day One®, Protein 30%, Fat 50%; FoxValley, Aurora, IL, USA). Probiotics, electrolytes, and vitamins are added during the first 7 days (Bio-Lapis®; Probiotics International Ltd., Somerser, UK) and immunoglobulins during the first 2 days (Col-o-Cat®, SanoBest, Hertogenbosch, Netherlands). The standard feeding protocol consisted of incrementally increasing the amounts of milk replacer (PND 0: 40 mg/kg, PND 1: 50 mg/kg/day, PND 2: 75 mg/kg, PND 3–6: 100 mg/kg/day). On Day 2, vitamin K1 was administered intramuscularly (0.002 mg/kg BW, Konakion pediatrique®; Roche, Basel, Switzerland).
At Day 7, invasive lung function testing was performed using the forced oscillation technique with the flexiVent^TM apparatus (SCIREQ, Montréal, Canada). […]
The following parameters were measured: total inspiratory capacity, resistance of the respiratory system (Rrs), lung tissue damping (G), lung tissue elastance (H), and static compliance (Cst). […] The average of three measurements was calculated and used in the analysis. […]
The left lung and the right lungs were embedded in paraffin, cut, and stained with hematoxylin and eosin (H&E) following standard histology protocols. The radial alveolar count (RAC) was performed by an expert pathologist blinded to the experimental design by drawing a perpendicular line from the lumen of the terminal bronchiole to the nearest connective tissue septum or pleural margin and the number of saccules or alveoli crossed by this line was counted as previously described. […]

[2] = Caco-2 permeability assay; format: in vitro ADME; conditions: human, basolateral to apical
[3] = set-up: method as in PMID 20729387; conditions: newborn mice, mothers received two antenatal doses of 3 mg/kg 48 and 72 h prior to delivery; cited from earlier work
[4] = set-up: method as in PMID 16617452; conditions: newborn rats; cited from earlier work
newborn rats = tested on: newborn rats; set-up: method as in PMID 19262292; conditions: single (24 h) and repeated (7 days) administration, 0.1–8 mg/kg; cited from earlier work
[5] = tested on: patients with type 2 diabetes; conditions: cited from earlier work

CN(CCOc1ccc(CC2SC(=O)NC2=O)cc1)c1ccccn1 (stereo not shown) [RGZ, rosiglitazone]
weight gain ([1]; PND 7): 43.46 ± 4.84 g | alveolarization (RAC) ([1]; PND 7, vs vehicle): neither improved | lung function (inspiratory capacity, G, H and Cst) ([1]; PND 7, vs vehicle): neither improved | Papp B→A at 2 h, 10 µM ([2]; Caco-2, pH 7.4, with Elacridar (GF120918), concentration not given, with Elacridar, read-out: Papp with Pgp Inhibitor (B–A) (converted)): 11.4 ×10⁻⁶ cm/s | Papp B→A at 2 h, 10 µM ([2]; Caco-2, pH 7.4, 2 h, without Pgp inhibitor, read-out: Papp (B–A) (converted)): 10 ×10⁻⁶ cm/s | plasma levels [3]: 350 ng/mL | plasma levels reported to protect the lungs from hyperoxia [4]: 350 ng/mL | serum cholesterol and triglycerides levels (newborn rats): remained unchanged | plasma triglycerides, large- and medium-sized lipoproteins, low- and high-density cholesterol ([5]; adult patients with type 2 diabetes and dyslipidemia): increases | risk of heart failure and cardiovascular mortality ([5]; diabetic patients): increases the risk
